Measurements as given in patent publication US20230265055A1, “STAT INIHIBITORY COMPOUNDS AND COMPOSITIONS” (JANPIX LIMITED, priority 2020, published 2023).

Assays:
MV4-11 cells = assay: MV4-11 Cell Cytotoxicity Assay; assay type: cell-based; conditions: Homo sapiens, 72 h incubation, CellTiter-Blue, read-out: IC50-MV-4-11 (NS)
Description: MV4-11 cells were grown in Iscove's Modified Dulbecco's Medium (IMDM) supplemented with 10% fetal bovine serum (FBS). 10,000 cells were plated per well in 96-well flat-bottom sterile culture plates with low-evaporation lids. After 24 h, inhibitors and a vehicle control (0.5% DMSO) were added and the cells were incubated for 72 h at 37° C. in 5% CO2. Inhibitors were examined in triplicate at a maximal concentration of 50 μM, followed by 1:2 dilutions in subsequent wells (25, 12.5, 6.25, 3.13, 1.56, 0.78, 0.39, 0.20 and 0.098 μM). After 72 h, the wells were treated with CellTiter-Blue® (20 μL/well), and the plates were incubated using standard cell culture conditions for 1 hour. Fluorescence was measured at 560/590 nm.

[1] = system: normal human fibroblast (NHF) cells; assay: NHF Cell Cytotoxicity Assay; assay type: cell-based; conditions: 72 hours, CellTiter-Blue, read-out: IC50—Pooled NHF
Description: Cell viability was examined a following treatment at various concentrations of inhibitor (0.097656-50 μM) using a cell Titer-Blue cell viability assay. 1×10^4 normal human fibroblast cells per well were plated in 96-well assay plates in culture medium. All cells were grown in DMEM, IMDM and RPMI-1640 were supplemented with 10% FBS. After 24 hours, test compounds and vehicle controls were added to appropriate wells so the final volume was 100 μl in each well. The cells were cultured for the desired test exposure period (72 hours) at 37° C. and 5% CO2. The assay plates were removed from 37° C. incubator and 20 μL/well of CellTiter-Blue® Reagent was added. […] For each sample well, value was normalized between the DMSO control and the highest concentration in case of plateau and converted into a percentage. In the absence of plateau, minimum lecture is obtained from a different sample within the same experiment. For each concentration, the four replicates are averaged, and standard deviation calculated. Data was fitted to a log(inhibitor) vs response curve with variable slope model using Microsoft Excel, obtaining IC50 and Hill slope variables.
A person skilled in the art would appreciate that a higher IC50 value in this NHF assay can indicate lower off-target effects.

`CCOc1cc(C(=O)O)ccc1N(Cc1cc(C2CC2)cc(C2CC2)c1)C(=O)CN(Cc1cccc(F)c1F)S(=O)(=O)c1cc(F)c(F)c(F)c1F` [Compound 9, 4-[(3,5-dicyclopropylphenyl)methyl-[2-[(2,3-difluorophenyl)methyl-(2,3,4,5-tetrafluorophenyl)sulfonyl-amino]acetyl]amino]-3-ethoxy-benzoic acid] gave an IC50 (MV4-11 cells) of 1200 to 6000 nM.
Work on `CCOc1cc(C(=O)O)ccc1N(Cc1cc(C2CC2)cc(C2CC2)c1)C(=O)CN(Cc1ccccc1F)S(=O)(=O)c1cc(F)c(F)c(F)c1F` [Compound 11, 4-[(3,5-dicyclopropylphenyl)methyl-[2-[(2-fluorophenyl)methyl-(2,3,4,5-tetrafluorophenyl)sulfonyl-amino]acetyl]amino]-3-ethoxy-benzoic acid] yielded an IC50 (MV4-11 cells) of 1200 to 6000 nM.
For `CCOc1cc(C(=O)O)ccc1N(Cc1cc(C2CC2)cc(C2CC2)c1)C(=O)CN(Cc1c(F)cc(F)cc1F)S(=O)(=O)c1cc(F)c(F)c(F)c1F` [Compound 12, 4-[(3,5-dicyclopropylphenyl)methyl-[2-[(2,3,4,5-tetrafluorophenyl)sulfonyl-[(2,4,6-trifluorophenyl)methyl]amino]acetyl]amino]-3-ethoxy-benzoic acid], the IC50 (MV4-11 cells) was 400 to 1200 nM.
`CCOc1cc(C(=O)O)ccc1N(Cc1cc(C2CC2)cc(C2CC2)c1)C(=O)CN(Cc1ccccc1C(F)(F)F)S(=O)(=O)c1c(F)cc(F)c(F)c1F` [Compound 14, 4-[(3,5-dicyclopropylphenyl)methyl-[2-[(2,3,4,6-tetrafluorophenyl)sulfonyl-[[2-(trifluoromethyl)phenyl]methyl]amino]acetyl]amino]-3-ethoxy-benzoic acid] showed an IC50 (MV4-11 cells) of 1200 to 6000 nM.
`CCOc1cc(C(=O)O)ccc1N(Cc1cc(C2CC2)cc(C2CC2)c1)C(=O)CN(Cc1ccc(F)cc1Cl)S(=O)(=O)c1c(F)cc(F)c(F)c1F` [Compound 15, 4-[[2-[(2-chloro-4-fluoro-phenyl)methyl-(2,3,4,6-tetrafluorophenyl)sulfonyl-amino]acetyl]-[(3,5-dicyclopropylphenyl)methyl]amino]-3-ethoxy-benzoic acid] showed an IC50 (MV4-11 cells) of 1200 to 6000 nM.
`CCOc1cc(C(=O)O)c(F)cc1N(Cc1cc(C2CC2)cc(C2CC2)c1)C(=O)CN(Cc1ccccc1C#N)S(=O)(=O)c1cc(F)c(F)c(F)c1F` [Compound 18, 4-[[2-[(2-cyanophenyl)methyl-(2,3,4,5-tetrafluorophenyl)sulfonyl-amino]acetyl]-[(3,5-dicyclopropylphenyl)methyl]amino]-5-ethoxy-2-fluoro-benzoic acid] showed an IC50 (MV4-11 cells) of 400 to 1200 nM and an IC50 [1] of at least 24000 nM.
`CCOc1cc(C(=O)O)c(F)cc1N(Cc1cc(C2CC2)cc(C2CC2)c1)C(=O)CN(Cc1ccccc1C#N)S(=O)(=O)c1c(F)cc(F)c(F)c1F` [Compound 19, 4-[[2-[(2-cyanophenyl)methyl-(2,3,4,6-tetrafluorophenyl)sulfonyl-amino]acetyl]-[(3,5-dicyclopropylphenyl)methyl]amino]-5-ethoxy-2-fluoro-benzoic acid] gave an IC50 (MV4-11 cells) of 1200 to 6000 nM.
`CCOc1cc(C(=O)O)ccc1N(Cc1cc(C2CC2)cc(C2CC2)c1)C(=O)CN(Cc1ccccc1C(F)(F)F)S(=O)(=O)c1c(Br)cc(F)c(F)c1F` [Compound 21, 4-[[2-[(6-bromo-2,3,4-trifluoro-phenyl)sulfonyl-[[2-(trifluoromethyl)phenyl]methyl]amino]acetyl]-[(3,5-dicyclopropylphenyl)methyl]amino]-3-ethoxy-benzoic acid] gave an IC50 (MV4-11 cells) of 1200 to 6000 nM and an IC50 [1] of at least 24000 nM.
For `CCOc1cc(C(=O)O)ccc1N(Cc1cc(C2CC2)cc(N2CCCC2)c1)C(=O)CN(Cc1ccccc1C#N)S(=O)(=O)c1cc(F)c(F)c(F)c1F` [Compound 22, 4-[[2-[(2-cyanophenyl)methyl-(2,3,4,5-tetrafluorophenyl)sulfonyl-amino]acetyl]-[(3-cyclopropyl-5-pyrrolidin-1-yl-phenyl)methyl]amino]-3-ethoxy-benzoic acid], the IC50 (MV4-11 cells) was 400 to 1200 nM.
`CCOc1cc(C(=O)O)ccc1N(Cc1cc(C2CC2)cc(N2CCCC2)c1)C(=O)CN(Cc1ccccc1C#N)S(=O)(=O)c1c(F)cc(F)c(F)c1F` [Compound 23, 4-[[2-[(2-cyanophenyl)methyl-(2,3,4,6-tetrafluorophenyl)sulfonyl-amino]acetyl]-[(3-cyclopropyl-5-pyrrolidin-1-yl-phenyl)methyl]amino]-3-ethoxy-benzoic acid] was tested, and the IC50 (MV4-11 cells) was 1200 to 6000 nM.
`CCOc1cc(C(=O)O)ccc1N(Cc1cc(C2CC2)cc(C(C)(C)C)c1)C(=O)CN(Cc1ccccc1C#N)S(=O)(=O)c1c(F)cc(F)c(F)c1F` [Compound 25, 4-[(3-tert-butyl-5-cyclopropyl-phenyl)methyl-[2-[(2-cyanophenyl)methyl-(2,3,4,6-tetrafluorophenyl)sulfonyl-amino]acetyl]amino]-3-ethoxy-benzoic acid] showed an IC50 (MV4-11 cells) of 1200 to 6000 nM.
`CCOc1cc(C(=O)O)ccc1N(Cc1cccc(N2CCCC2)c1)C(=O)CN(Cc1ccccc1C#N)S(=O)(=O)c1cc(F)c(F)c(F)c1F` [Compound 26, 4-[[2-[(2-cyanophenyl)methyl-(2,3,4,5-tetrafluorophenyl)sulfonyl-amino]acetyl]-[(3-pyrrolidin-1-ylphenyl)methyl]amino]-3-ethoxy-benzoic acid] was tested, and the IC50 (MV4-11 cells) was 400 to 1200 nM.
For `CCOc1cc(C(=O)O)ccc1N(Cc1cc(OC(C)C)cc(C2CC2)c1)C(=O)CN(Cc1ccccc1C#N)S(=O)(=O)c1cc(F)c(F)c(F)c1F` [Compound 32, 4-[[2-[(2-cyanophenyl)methyl-(2,3,4,5-tetrafluorophenyl)sulfonyl-amino]acetyl]-[(3-cyclopropyl-5-isopropoxy-phenyl)methyl]amino]-3-ethoxy-benzoic acid], the IC50 (MV4-11 cells) was 1200 to 6000 nM.
`CCOc1cc(C(=O)O)ccc1N(Cc1cccc(OC(C)C)c1)C(=O)CN(Cc1ccccc1C#N)S(=O)(=O)c1cc(F)c(F)c(F)c1F` [Compound 33, 4-[[2-[(2-cyanophenyl)methyl-(2,3,4,5-tetrafluorophenyl)sulfonyl-amino]acetyl]-[(3-isopropoxyphenyl)methyl]amino]-3-ethoxy-benzoic acid] showed an IC50 (MV4-11 cells) of 1200 to 6000 nM.
Work on `CCOc1cc(C(=O)O)ccc1N(Cc1cc(C2CC2)cc(N2CCCC2)c1)C(=O)CN(Cc1ccccc1C#N)S(=O)(=O)c1c(Br)cc(F)c(F)c1F` [Compound 36, 4-[[2-[(6-bromo-2,3,4-trifluoro-phenyl)sulfonyl-[(2-cyanophenyl)methyl]amino]acetyl]-[(3-cyclopropyl-5-pyrrolidin-1-yl-phenyl)methyl]amino]-3-ethoxy-benzoic acid] yielded an IC50 (MV4-11 cells) of 1200 to 6000 nM and an IC50 [1] of at least 24000 nM.
In the case of `COc1cc(C(=O)O)ccc1N(Cc1cc(C2CC2)cc(C(C)(C)C)c1)C(=O)CN(Cc1cnccc1C(F)(F)F)S(=O)(=O)c1c(F)c(F)cc(F)c1F` [Compound 46, 4-(N-(3-(tert-butyl)-5-cyclopropylbenzyl)-2-((2,3,5,6-tetrafluoro-N-((4-(trifluoromethyl)pyridin-3-yl)methyl)phenyl)sulfonamido)acetamido)-3-methoxy benzoic acid], the IC50 (MV4-11 cells) is reported as over 6000 nM.
Compound `CCOc1cc(C(=O)O)ccc1N(Cc1cc(C2CC2)cc(C2CC2)c1)C(=O)CNS(=O)(=O)c1cc(F)c(F)c(F)c1F` [Compound 47, 4-(N-(3,5-dicyclopropylbenzyl)-2-((2,3,4,5-tetrafluorophenyl)sulfonamido)acetamido)-3-ethoxy benzoic acid] has an IC50 (MV4-11 cells) of over 6000 nM.
`CCOc1cc(C(=O)O)ccc1NC(=O)CN(Cc1ccccc1C#N)S(=O)(=O)c1cc(F)c(F)c(F)c1F` [Compound 48, 4-(2-((N-(2-cyanobenzyl)-2,3,4,5-tetrafluorophenyl)sulfonamido)acetamido)-3-ethoxy benzoic acid] showed an IC50 (MV4-11 cells) of 1200 to 6000 nM.
With `O=C(O)c1ccc(N(Cc2cc(C3CC3)cc(C3CC3)c2)C(=O)CN(Cc2ccccc2Cl)S(=O)(=O)c2c(F)c(F)c(F)c(F)c2Cl)c(O)c1` [Compound 73, 4-(2-((2-chloro-N-(2-chlorobenzyl)-3,4,5,6-tetrafluorophenyl)sulfonamido)-N-(3,5-dicyclopropylbenzyl)acetamido)-3-hydroxybenzoic acid] the IC50 (MV4-11 cells) was 400 to 1200 nM and the IC50 [1] was at least 24000 nM.
`O=C(O)c1ccc(N(Cc2cc(C3CC3)cc(C3CC3)c2)C(=O)CN(Cc2ccccc2Cl)S(=O)(=O)c2c(F)c(F)c(F)c(F)c2Cl)cc1O` [Compound 76, 4-(2-((2-chloro-N-(2-chlorobenzyl)-3,4,5,6-tetrafluorophenyl)sulfonamido)-N-(3,5-dicyclopropylbenzyl)acetamido)-2-hydroxybenzoic acid] gave an IC50 (MV4-11 cells) of 1200 to 6000 nM and an IC50 [1] of at least 24000 nM.
